Legend:
[1] = system: high sucrose diet-fed hamster; assay: Effectiveness in high sucrose diet-fed hamster (plasma lipid change rate); assay type: in vivo, Syrian hamsters; settings: for Change rate Non-HDL Cho / Change rate TG / Change rate Total Cho: 14th day, versus control group
Protocol: Pharmacological action of EPA-E and/or tocopherol nicotinate on plasma lipids was confirmed by using hamsters that had been fed high sucrose diet. 6 week old male Syrian hamsters (Japan SLC, Inc.) were allowed to freely take fish meal-less F-1 diet (F-1, Funabashi Farm) under 12 hour light-dark cycles at 23°C for 2 weeks, and then, high sucrose diet (D11511, Research Diet Inc.) for 2 weeks. 6 groups (each comprising 6 animals), namely, control group, EPA-E 300 group, EPA-E 1000 group, tocopherol nicotinate 1000 group (hereinafter referred to as TN1000 group), low dose combination group, and high dose combination group were set. During the feeding of the high sucrose diet, the EPA-E 300 group was administered with 300 mg/kg of EPA-E (Mochida Pharmaceutical Co.); the EPA-E 1000 group was administered with 1000 mg/kg of EPA-E; the TN1000 group was administered with 1000 mg/kg of tocopherol nicotinate (Wako Pure Chemical Industries, Ltd.); the low dose combination group was administered with 300 mg/kg of EPA-E and 1000 mg/kg of tocopherol nicotinate; and the high dose combination group was administered with 1000 mg/kg of EPA-E and 1000 mg/kg of tocopherol nicotinate after suspending in 5% aqueous solution of gum arabic. The control group was orally administered with 5% aqueous solution of gum arabic once a day. Blood was collected one day before the start of the administration and on the 14th day of the administration, and plasma was separated by centrifugation. Plasma TG, total Cho, and HDL Cho concentration were respectively measured using a biochemical analyzer (A0400, Olympus Corporation) and commercially available assay reagent (Wako Pure Chemical Industries, Ltd.). The nan-HDL Cho concentration (total Cho-HDL Cho) was also calculated. No statistically significant difference was found in the plasma lipid concentrations of various groups on the day before the start of the administration. The plasma TG, total Cho, and non-HDL Cho concentration of each group at 14th day of the drug administration was compared with the corresponding values of the control group, and change rate was calculated by the following equation: Change rate (%) = [{(lipid concentration of each group)-(lipid concentration of control group)}x100]/(lipid concentration of the control group) [formula] For the combination group, sum of the change rate of the EPA-E sole administration group and the change rate of the tocopherol nicotinate sole administration group is shown in Table 1 as the theoretical change rate of the combination group. When the change rate of the actual measurement was negative and the value was lower than the theoretical value, synergistic effect by the combined use in the lipid decrease was deemed to have been realized.

Cho diet rabbit = assay: Effectiveness in Cho diet rabbit (plasma lipids, auricle skin temperature, platelet collagen aggregation); assay type: in vivo, Japan white male rabbits; settings: HCD diet 12 weeks; EPA-E 1000 mg/kg or tocopherol nicotinate 300 mg/kg orally once a day; compared to control group
Description: Pharmacological action of EPA-E and/or tocopherol nicotinate on plasma lipids, auricle skin temperature, and platelet aggregation is confirmed by using rabbits that have been fed with Cho diet (hereinafter referred to as "HCD diet") known to develop a dyslipidemia. Japan white male rabbits (Funabashi Farm) having a body weight of 2.7 to 3.3 kg are allowed to freely take 100 g/day of normal diet (F-1, Funabashi Farm) or HCD diet (RC-4 supplemented with 1% Cho, Oriental Yeast Co.,Ltd.) for 12 weeks under 12 hour light-dark cycles at 23°C. 5 groups (each comprising 10 animals), namely, normal group (normal diet feeding); control group (HCD diet feeding); EPA-E group (HCD diet feeding + EPA-E administration); tocopherol nicotinate group (HCD diet feeding + tocopherol nicotinate administration); and combination group (HCD diet feeding + EPA-E administration + tocopherol nicotinate administration) are set. During the feeding, the EPA-E group is administered with 1000 mg/kg of EPA-E; the tocopherol nicotinate group is administered with 300 mg/kg of tocopherol nicotinate; and the combination group is administered with 1000 mg/kg of EPA-E and […] of tocopherol nicotinate after suspending in 5% aqueous solution of gum arabic. The administration is conducted orally once a day. The normal group and the control group are orally administered with 5% aqueous solution of gum arabic once a day. At the start of the administration and after 12 weeks of feeding, auricle skin temperature is measured by thermography and blood is collected for plasma biochemical tests. Platelet collagen aggregation is also checked after 12 weeks of feeding by measuring absorbance.

hypertriglyceridemia rat = assay: Effectiveness in hypertriglyceridemia rat; assay type: in vivo, Zucker Diabetic Fatty rat; settings: 4 weeks; EPA-E 300 mg/kg or tocopherol nicotinate 100 mg/kg orally once a day as emulsion; compared to control group
Protocol: 6 week old male Zucker Diabetic Fatty rat (Charles River Japan) are allowed to freely take diabetes-inducing diet (Purina 5008 (crude protein content, 23.5%; crude lipid content, 6.5%)) under 12 hour light-dark cycles at 23°C. 4 groups (each comprising 10 animals), namely, control group; EPA-E group (EPA-E administration); tocopherol nicotinate group (tocopherol nicotinate administration); and combination group (EPA-E administration + tocopherol nicotinate administration) are set. During the feeding, the EPA-E group is administered with 300 mg/kg of EPA-E; the tocopherol nicotinate group is administered with 100 mg/kg of tocopherol nicotinate; and the combination group is administered with 300 mg/kg of EPA-E and 100 mg/kg of tocopherol nicotinate. The administration is conducted orally once a day. The drugs are administered by preparing an emulsion preparation according to Preparation Example 8. The control group is orally administered with base of the emulsion preparation of Preparation Example 8 once a day. At the start of the administration and after 4 weeks of feeding, auricle skin temperature is measured by thermography and blood is collected for plasma biochemical test.

[2] = system: lauric acid-induced peripheral arterial occlusive hypertriglyceridemia rat; assay: Effectiveness in lauric acid-induced peripheral arterial occlusive hypertriglyceridemia rat (lesion score); assay type: in vivo, Wister rats; settings: 2 weeks after the surgery; EPA-E 300 mg/kg or tocopherol nicotinate 100 mg/kg orally once a day; compared to control group
Protocol: 4 week old male Wister rats (Japan SLC, Inc.) are allowed to freely take high sucrose diet (AIN-76A, PURINA MILLS) for 4 weeks under 12 hour light-dark cycles at 23°C. 5 groups (each comprising 10 animals), namely, sham surgery group; control group, EPA-E group (EPA-E administration); tocopherol nicotinate group (tocopherol nicotinate administration); and combination group (EPA-E administration + tocopherol nicotinate administration) are set. During the feeding, the EPA-E group is administered with 300 mg/kg of EPA-E; the tocopherol nicotinate group is administered with 100 mg/kg of tocopherol nicotinate; and the combination group is administered with 300 mg/kg of EPA-E and 100 mg/kg of tocopherol nicotinate after suspending in 5% aqueous solution of gum arabic. The administration is conducted orally once a day. […] Progress of the lesion of the limbs on the peripheral side of the injection site is scored for wet gangrene and dry gangrene, and the lesion is visually inspected with naked eyes every day until 2 weeks after the surgery. Progress of the lesion is scored by the following criteria: • Score 0: no change, score 1: the lesion is limited to nail, score 2: the lesion is limited to finger, score 3: the lesion is expanded to footpad, and score 4: the lesion is expanded to lower limb.

| Compound | Change rate Non-HDL Cho ([1]; 300 mg/kg orally) | Change rate TG ([1]; 300 mg/kg orally) | Change rate Total Cho ([1]; 300 mg/kg orally) | Change rate Non-HDL Cho ([1]; 1000 mg/kg orally) | Change rate TG ([1]; 1000 mg/kg orally) | Change rate Total Cho ([1]; 1000 mg/kg orally) | decrease of the auricle skin temperature (Cho diet rabbit) | enhancement of the platelet collagen aggregation (Cho diet rabbit) | plasma TG concentration (Cho diet rabbit) | plasma total Cho concentration (Cho diet rabbit) | plasma TG concentration (hypertriglyceridemia rat) | plasma free fatty acid concentration (hypertriglyceridemia rat) | score of progress of the lesion (wet and dry gangrene, 0-4) [2] | lipid reducing action (plasma TG, total Cho, non-HDL Cho) ([1]; high sucrose diet, 14 days oral administration) |
| --- | --- | --- | --- | --- | --- | --- | --- | --- | --- | --- | --- | --- | --- | --- |
| CC/C=C\C/C=C\C/C=C\C/C=C\C/C=C\CCCC(=O)OCC [EPA-E, Ethyl icosapentaenoate] | 14.8% | 2.7% | 11.1% | 11.1% | 19.6% | 2.7% | – | – | – | – | – | – | – | – |
| Cc1c(C)c2c(c(C)c1OC(=O)c1cccnc1)CCC(C)(CCCC(C)CCCC(C)CCCC(C)C)O2 (centres unmarked) [tocopherol nicotinate] | – | – | – | -11.6% | -23.3% | -3.7% | also suppressed | also suppressed | suppressed increase | suppressed increase | suppressed increase | suppressed increase | improved scores | the action of reducing the TG and non-HDL Cho was found |
